Measured values as given in publication PMC11939259, “Antiparasitic and Antifungal Activities of Cetyl-Maritima, a New N-Cetyl-Modified Maritima Derivative” (Antibiotics, 2025).
“And” between values parts separate entries of the source, which are not always exact repeats. Equal values may be shown once. Read-outs that look alike come from different tables or passages of the source.

Experiments:
eumycetoma = system: eumycetoma; set-up: method as in PMID 38690871, PMID 38935904, PMID 39098321; details: eumycetoma patients, conditions of a clinical trial, combined with surgery; cited from earlier work
[1] = system: L. major intramacrophageal amastigotes; experiment: L. major intramacrophageal amastigote assay (Giemsa, infected macrophages); format: cell-based, Leishmania major; details: for IC50: Leishmania major, Macrophage, 72 h, read-out: IC50 Amastigotes
Description: Promastigotes of L. major were isolated from a patient in February 2016 and cultured at 26 °C in Schneider’s Drosophila medium (Invitrogen, Carlsbad, CA, USA) supplemented with 10% heat-inactivated fetal bovine serum (FBS, Invitrogen, USA) and antibiotics. Cultures were maintained in tissue culture flasks with weekly transfers. The promastigotes were cryopreserved in liquid N2 at a concentration of 3 × 10^6 parasites/mL. Virulent L. major parasites were maintained by serial passage in BALB/c mice through hind footpad injections of 1 × 10^6 stationary-phase promastigotes, and amastigotes were isolated after 7 weeks. Isolated amastigotes were converted to promastigotes by culturing at 26 °C in Schneider’s medium with antibiotics and 10% FBS. Amastigote-derived promastigotes, with fewer than five in vitro passages, were used for infection experiments.
(§1) For amastigote activity assays, peritoneal macrophages were collected from BALB/c mice (7 weeks old) by aspiration. Cells (5 × 10^4 cells/well) were seeded into 96-well plates (see also Figure S7) with phenol red-free RPMI 1640 medium containing 10% FBS and incubated at 37 °C with 5% CO2 for 4 h to allow adhesion. After discarding the medium and washing with PBS, 200 μL of L. major promastigotes in RPMI 1640 medium (10 promastigotes per macrophage) were added. Plates were incubated at 37 °C with 5% CO2 for 24 h to promote macrophage infection and amastigote differentiation. Unattached promastigotes were removed by washing with PBS (three times), and fresh phenol red-free RPMI 1640 medium containing test compounds (90, 30, 10, 3.3, 1.1, 0.37, and 0.12 μg/mL) was added. Cultures were incubated at 37 °C in 5% CO2 for 72 h. […] After incubation, cells were fixed and Giemsa-stained, and the percentage of infected macrophages was determined microscopically. IC50 values were calculated from three independent experiments. The isolation of parasites and macrophages was performed strictly following the rules and guidelines of the responsible committee of research ethics, Deanship of Scientific Research, Qassim University, Kingdom of Saudi Arabia (permission number 20-03-20).

[2] = system: M. mycetomatis fungal strain MM55; experiment: M. mycetomatis MM55 in vitro susceptibility, MTS metabolic activity; format: cell-based, Madurella mycetomatis; details: for Metabolic activity upon treatment at 25 μM / Metabolic activity upon treatment at 100 μM: ± SD
Experimental: The M. mycetomatis MM55 isolate obtained from a patient and identified and maintained in the Erasmus Medical Centre, Rotterdam, The Netherlands, was applied for the investigation of the in vitro susceptibility of the test compounds as reported previously [94]. In short, the fungal isolate was cultured on Sabouraud agar for 2 weeks at 37 °C, after which the mycelium was transferred in colorless RPMI 1640 medium supplemented with L-glutamine (0.3 g/L; Capricorn-Scientific, Ebsdorfergrund, Germany), morpholinepropanesulfonic acid (MOPS, 20 mM, Sigma, St. Louis, MO, USA), and chloramphenicol (100 mg/L, Oxoid, Basingstroke, UK). The mycelium was sonicated for 10 s at 10 μm with a probe sonicator (Soniprep, Beun de Ronde, Abcoude, The Netherlands) to obtain a hyphal suspension, after which the hyphal suspension was cultured for another week at 37 °C. The suspension was then collected by centrifugation (5 min, 3400 rpm) and washed with PBS followed by the addition of fresh RPMI 1640 medium, after which the mycelia was again sonicated for 10 s at 10 μm with a probe sonicator. The hyphal suspension was diluted to a transmission of 70% at 660 nm (Novaspec II; Pharmacia Biotech, Uppsala, Sweden). Then, 100 μL of the suspension was added to each well of a 96-wells plate (Costar 3799, Fisher Scientific, Breda, The Netherlands) that contained 1 μL of each compound sample. Compounds were initially evaluated at concentrations of 100 μM and 25 μM.
For the final metabolic activity evaluation, a viability dye named MTS, 3-(4,5-dimethylthiazol-2-yl)-5-(3-carboxymethoxyphenyl)-2-(4-sulfophenyl)-2H-tetrazolium salt, was applied as described in a previous study [64]. The following formula was used: Percentage metabolic activity=Absorbance test490nm−Absorbance NC490nm/Absorbance GC490nm−Absorbance NC490nm∗100
The growth control (GC) refers to the fungal isolate only and indicates 100% metabolic activity.

[3] = system: T. gondii RH strain tachyzoites; experiment: T. gondii growth inhibition in infected Vero cells (infection index); format: cell-based, Toxoplasma gondii
Description: Cells of the Vero cell line (ATCC® CCL81™, Manassas, VA, USA) were used to cultivate T. gondii RH strain tachyzoites. The effects of test compounds on T. gondii growth were investigated according to previously published methods. Vero cells were maintained in complete RPMI 1640 medium supplemented with 10% heat-inactivated FBS, under a humidified atmosphere containing 5% CO2 at 37 °C. The cells were seeded in 96-well plates at a density of 5 × 10^3 cells/well (see also Figure S7) in 200 μL of RPMI 1640 medium and incubated at 37 °C with 5% CO2 for 24 h. Following incubation, the medium was discarded, and cells were washed with PBS. Subsequently, RPMI 1640 medium containing 2% FBS and T. gondii tachyzoites was added at a ratio of 5 parasite cells to 1 Vero cell. After 5 h incubation at 37 °C and 5% CO2, cells were washed with PBS and processed as outlined below.
Control: RPMI 1640 medium with 0.8% DMSO.
Experimental: RPMI 1640 medium containing test compounds (dissolved in DMSO) at concentrations of 90, 30, 10, 3.3, 1.1, 0.37, and 0.12 μg/mL. Atovaquone (ATO) was used as positive control.
Cells were incubated at 37 °C and 5% CO2 for 72 h, washed with PBS, fixed in 10% formalin, and stained with 1% toluidine blue. The infection index, defined as the number of infected cells out of 200 examined cells, was determined using an inverted photomicroscope.
The percentage of inhibition was calculated using the following equation:Inhibition (%) = [(I Control − I Experimental)/I Control] × 100 where “I Control” is the infection index of untreated cells, and “I Experimental” is the infection index of cells treated with test compounds.

Vero monkey kidney cells = experiment: Vero cell cytotoxicity (MTT); format: cell-based; details: Primates, 72 h, ± S.D
Description: MTT assays were performed to assess the cytotoxicity of the test compounds. Vero cells and isolated macrophages were seeded in 96-well plates at a density of 5 × 10^3 cells per well in 200 μL of RPMI 1640 medium with 10% FBS and incubated at 37 °C with 5% CO2 for 24 h. After incubation, cells were washed with PBS and treated with test compounds at varying concentrations (90, 30, 10, 3.3, 1.1, 0.37, and 0.12 μg/mL) in 10% FBS medium for 72 h. Negative control wells contained cells treated with medium in 2% FBS without test compounds (see also raw data in Table S5). After treatment, the supernatant was removed, and 50 μL of RPMI 1640 medium containing 14 μL of MTT solution (5 mg/mL) was added. The cells were incubated for an additional 4 h. Following incubation, the supernatant was discarded, and 200 μL of DMSO was added to dissolve the formazan crystals. The absorbance was measured at 540 nm using a FLUOstar OPTIMA spectrophotometer (BMG LABTECH, Ortenberg, Germany). […] IC50 values were determined from three independent experiments.

peritoneal macrophages = experiment: Macrophage cytotoxicity (MTT); format: cell-based, BALB/c mice; details: Mus musculus, 72 h, read-out: IC50 Macrophages
Description: as §1, with “The isolation of parasites and macrophages was performed strictly following the rules and guidelines of the responsible committee of research ethics, Deanship of Scientific Research, Qassim University, Kingdom of Saudi Arabia (permission number 20-03-20).” left out
MTT assays were performed to assess the cytotoxicity of the test compounds. […] The absorbance was measured at 540 nm using a FLUOstar OPTIMA spectrophotometer (BMG LABTECH, Ortenberg, Germany). […] IC50 values were determined from three independent experiments.

L. major promastigotes = experiment: L. major promastigote viability (MTT); format: cell-based; details: Leishmania major, 72 h, read-out: IC50 Promastigotes
[4] = system: M. mycetomatis fungal strain MM55; set-up: method as in PMID 37067830; details: positive control, cited from earlier work
[5] = Madurella mycetomatis, read-out: IC50

In the case of `C[C@@H](c1nc(-c2ccc(C#N)cc2)cs1)[C@@](Cn1cncn1)(OCOP(=O)(O)O)c1ccc(F)cc1F` [fosravuconazole], the cure rate (eumycetoma) is listed as greater than 70%.
For `CC(C)=CCCC(C)=CCCc1ccncc1` [Maritima, 4-(4,8-dimethyl-3,7-nonadienyl)-pyridine], the IC50 ([1]; intramacrophageal, ± S.D) was greater than 314000 nM, the “Metabolic activity upon treatment at 25 μM” value [2] was 54% and 54.3 ± 7.5% and the “Metabolic activity upon treatment at 100 μM” value [2] was 13.8 ± 33.8%. The IC50 ([3]; Toxoplasma gondii, Vero; 72 h; ± S.D) was greater than 314 µM, the IC50 (Vero monkey kidney cells) was greater than 314 µM and the IC50 (peritoneal macrophages; ± S.D) was greater than 314 µM. The IC50 (L. major promastigotes; ± S.D) was greater than 314000 nM.
With `CCCCCCCCCCCCCCCC[n+]1ccc(CCC=C(C)CCC=C(C)C)cc1.[Br-]` [Cetyl-Maritima, 1-Hexadecyl-4-(4,8-dimethyl-3,7-nonadienyl)-pyridinium Bromide] the “SI selectivity index (macrophages/L. major amastigotes)” value [1] was 7.2, the “SI selectivity index, Vero kidney cells vs L. major amastigotes” value [1] was 19 and the IC50 [1] was 600 ± 200 nM. The IC50 [2] was 8.2 µM, the “Metabolic activity upon treatment at 25 μM” value [2] was 12.2 ± 6.9% and the “Metabolic activity upon treatment at 100 μM” value [2] was 13.1 ± 2.0%. The IC50 ([2]; Madurella mycetomatis) was roughly 8 µM, the “SI selectivity index (Vero/T. gondii)” value [3] was 1.3 and the IC50 ([3]; 72 h; ± S.D) was 8.6 ± 1.2 µM. For the same molecule, the IC50 ([3]; Toxoplasma gondii, Vero, 72 h; ± S.D) was roughly 8 µM, the IC50 (Vero monkey kidney cells) was 11.4 ± 1.3 µM and the IC50 (peritoneal macrophages) was 4.3 ± 0.5 µM. It also gave an IC50 (L. major promastigotes) of 1500 ± 200 nM.
For `CCC(C)n1ncn(-c2ccc(N3CCN(c4ccc(OCC5COC(Cn6cncn6)(c6ccc(Cl)cc6Cl)O5)cc4)CC3)cc2)c1=O` (stereo not drawn) [Itraconazole, itraconazole], the cure rate (eumycetoma) is given as greater than 70%, the “Metabolic activity upon treatment at 25 μM” value ([4]; 25 μM, ± SD) is given as −1.04 ± 2.37% and the “Metabolic activity upon treatment at 100 μM” value ([4]; 100 μM, ± SD) is given as 2.34 ± 4.49%. The IC50 [4] was 90 nM.
With `CCCCCCCCCCCCCCCC[n+]1ccc(/C=C/c2ccc(N(C)C)cc2)cc1` [DAMS-16] the “Metabolic activity upon treatment at 25 μM” value [2] was 56.9 ± 69.3%, the “Metabolic activity upon treatment at 100 μM” value [2] was 25.4 ± 4.3% and the IC50 [2, 5] was 16 µM.
In the case of `CCCCCCCCCCCCCCCC[n+]1ccc(C)cc1` [C4PicBr], the “Metabolic activity upon treatment at 25 μM” value [2] is reported as 18.4 ± 17.7%, the “Metabolic activity upon treatment at 100 μM” value [2] is reported as 5.0 ± 0.8% and the IC50 [2, 5] is reported as 16.1 µM.
With “Dichlorido(η^6-p-cymene)[4-(4,8-dimethyl-3,7-nonadienyl)-pyridine]ruthenium(II) [Ru-Maritima]” the “Metabolic activity upon treatment at 25 μM” value [2] was 155% and 155.7 ± 22.2% and the “Metabolic activity upon treatment at 100 μM” value [2] was −6.6 ± 12.2%.
With `CCCCCCCCCCCCCCCC[n+]1ccc(/C=C/c2cc(OC)c(OC)c(OC)c2)cc1` [TMP-16] the “Metabolic activity upon treatment at 25 μM” value [2] was 13.3 ± 1.5%, the “Metabolic activity upon treatment at 100 μM” value [2] was 19.1 ± 1.1% and the IC50 [2, 5] was 18.2 µM.
For `CCCCCCCCCCCCCCCC[n+]1ccccc1C` [C2PicBr], the “Metabolic activity upon treatment at 25 μM” value [2] was 8.7 ± 0.8%, the “Metabolic activity upon treatment at 100 μM” value [2] was 4.5 ± 0.8% and the IC50 [2, 5] was 16.1 µM.
